In patent publication US11673877B2 (priority 2017, dated 2023):
In brackets after ≈: the same amount, converted by molar mass. Where two headings read alike, the source gives them in different places.

Key:
[1] = solid form, no method given
[2] = for water activity at which the form is the preferred form: slurry in water/DMSO mixtures, 2 days
Procedure: Powder samples were prepared in a low background Si holder using light manual pressure to keep the sample surfaces flat and level with the reference surface of the sample holder. Each sample was analyzed from 2 to 40° 2θ using a continuous scan of 6° 2θ per minute with an effective step size of 0.02° 2θ. Unless otherwise noted, XPRD studies were performed at room temperature and room humidity.
Slurry experiments designed to provide a range of water activities were carried out in solvent mixtures containing water and dimethylsulfoxide (Table 1). […] The samples were analyzed while wet to avoid changes, such as the hydrate converting to the anhydrate, from drying.

[3] = for hygroscopicity from DVS curve: 5 to 95% RH; for solid form by XRPD after the DVS experiment: after adsorption/desorption cycle 5-95-5% RH
Procedure: DVS analyses were carried out TA Instruments Q5000 Dynamic Vapor Sorption analyzer. The instrument was calibrated with standard weights and a sodium bromide standard for humidity. Samples were analyzed at 25° C. with a maximum equilibration time of 60 minutes in 10% relative humidity (RH) steps from 5 to 95% RH (adsorption cycle) and from 95 to 5% RH (desorption cycle).
After the experiment the samples were analyzed by XRPD.

physchem = conditions: aqueous solution, aqueous buffer
PARP = conditions: read-out: inhibition of PARP activity EC50; whole cell assay; cited from earlier work
[4] = system: cancer cells with mutant BRCA-1 and BRCA-2; conditions: read-out: inhibition of proliferation CC50; cited from earlier work

NC(=O)c1cccc2cn(-c3ccc([C@@H]4CCCNC4)cc3)nc12 [2-{4-[(3S)-piperidin-3-yl]phenyl}-2H-indazole-7-carboxamide, reference compound]
hygroscopicity [1]: highly hygroscopic

NC(=O)c1cccc2cn(-c3ccc([C@@H]4CCCNC4)cc3)nc12 [Form III, 2-{4-[(3S)-piperidin-3-yl]phenyl}-2H-indazole-7-carboxamide]
water activity at which the form is the preferred form [2]: ≤ 0.11 | hygroscopicity from DVS curve ([3]; 25° C.): very hygroscopic | solid form by XRPD after the DVS experiment [3]: converted to the monohydrate | DVS weight gain ([3]; up to 95% RH, 25° C.): approximately 15.8%

Cc1ccc(S(=O)(=O)O)cc1.NC(=O)c1cccc2cn(-c3ccc([C@@H]4CCCNC4)cc3)nc12 [Niraparib tosylate monohydrate, 2-{4-[(3S)-piperidin-3-yl]phenyl}-2H-indazole 7-carboxamide 4-methylbenzenesulfonate hydrate (1:1.1)]
water activity at which the form is the preferred form [2]: ≥ 0.22 | hygroscopicity from DVS curve ([3]; 25° C.): not hygroscopic | solid form by XRPD after the DVS experiment [3]: remained unchanged | hygroscopicity [1]: non-hygroscopic

NC(=O)c1cccc2cn(-c3ccc([C@@H]4CCCNC4)cc3)nc12 [Niraparib, 2-{4-[(3S)-piperidin-3-yl]phenyl}-2H-indazole-7-carboxamide]
solubility (physchem): 700 to 1100 µg/mL (≈ 2180 to 3430 µM) | EC50 (PARP): […] | CC50 [4]: 10 to 100 nM

Cc1ccc(S(=O)(=O)O)cc1.NC(=O)c1cccc2cn(-c3ccc([C@@H]4CCCNC4)cc3)nc12 [niraparib tosylate, 2-{4-[(3S)-piperidin-3-yl]phenyl}-2H-indazole-7-carboxamide tosylate]
XRPD Result ([2]; 0 % water in DMSO, water activity 0, 2 days): anhydrate | XRPD Result ([2]; 17.2 % water in DMSO, water activity 0.22, 2 days): hydrate | XRPD Result ([2]; 27.6 % water in DMSO, water activity 0.38, 2 days): hydrate | XRPD Result ([2]; 43.3 % water in DMSO, water activity 0.60, 2 days): hydrate | XRPD Result ([2]; 82.8 % water in DMSO, water activity 0.84, 2 days): hydrate | XRPD Result ([2]; 100.0 % water, water activity 1.00, 2 days): hydrate
